The term half-life denotes the time in which the quantity being followed falls by half. As usually defined, the solubility is the concentration that dissolves in the medium under given conditions. A word on the bioavailability: it is the share of a dose that reaches the circulation, judged against a reference dose that is usually intravenous. By ED50 is commonly meant the dose at which the effect has come halfway, by size or by number of responders. By IC50 is commonly meant the concentration that inhibits the measured activity by half.

Data set [1] is described as follows: Clearance in beagle dog at 0.5 mg/kg, iv or 2.5 mg/kg, po by LC-MS/MS analysis. It counts as ADME, organism-based, Canis lupus familiaris. The conditions noted are these: in vivo.
Data set [2] relates to Rattus norvegicus. Nature of the data set: Toxicity in rat assessed as increase in liver weight at 50 to 500 mg/kg administered via oral gavage on day 1 and day 4. It counts as organism-based. The note with it: in vivo.
The nature of data set [3]: Half life in beagle dog at 0.5 mg/kg, iv by LC-MS/MS analysis. It counts as ADME, organism-based, Canis lupus familiaris. The conditions noted are these: in vivo.
A short description of data set [4]: Solubility of compound in phosphate buffer at pH 2 after 3 days. It counts as physicochemical.
The nature of data set [5]: Protein binding in rat brain at 5 uM after 5 hrs by equilibrium dialysis method. It counts as ADME, tissue-based. The conditions noted are these: read-out: PB (converted).
Data set [6] can be described thus: Oral bioavailability in beagle dog at 2.5 mg/kg by LC-MS/MS analysis. It counts as ADME, organism-based, Canis lupus familiaris. The conditions noted are these: beagle, in vivo.
Data set [7] deals with Liver. Nature of the data set: Drug metabolism in dog liver microsomes assessed as oxidation of methyl group on pyrimidine at 1 uM after 5 to 60 mins by LC-MS/MS analysis. It counts as ADME, Canis lupus familiaris, microsome. Background: Microsomes from liver hold many membrane-bound enzymes, among them those of drug oxidation.
Data set [8] has as its system Liver. Kind of data set: Drug metabolism in human liver microsomes assessed as oxidation of methyl group on pyrimidine at 1 uM after 5 to 60 mins by LC-MS/MS analysis. It counts as ADME, microsome.
The subject of data set [9] is Rattus norvegicus. Kind of data set: Ex vivo receptor occupancy at P2X7 in po dosed Sprague-Dawley rat brain after 60 mins by autoradiography. The conditions noted are these: 1 h. It counts as functional.
The nature of data set [10]: Half life in Sprague-Dawley rat at 1 mg/kg, iv by LC-MS/MS analysis. It counts as ADME, organism-based. The note with it: in vivo.
Data set [11] concerns Rattus norvegicus. Nature of the data set: Toxicity in rat assessed as autoinduction at 50 to 500 mg/kg administered via oral gavage on day 1 and day 5. The note with it: in vivo. It counts as organism-based.
Data set [12] is described as follows: Drug metabolism in cynomolgus monkey liver microsomes assessed as oxidation of methyl group on pyrimidine at 1 uM after 5 to 60 mins by LC-MS/MS analysis. It counts as ADME, Macaca fascicularis, microsome.
The nature of data set [13]: Clearance in Sprague-Dawley rat at 1 mg/kg, iv or 5 mg/kg, po by LC-MS/MS analysis. It counts as ADME, organism-based. The conditions noted are these: in vivo.
Data set [14] concerns the target Cytochrome P450 2C19 (Homo sapiens, UniProt P33261). Nature of the data set: Drug metabolism assessed as recombinant human CYP2C19-mediated metabolite formation. It counts as ADME. The note with it: recombinant enzyme.
Data set [15] has as its system Liver. Kind of data set: Drug metabolism in mouse liver microsomes assessed as oxidation of methyl group on pyrimidine at 1 uM after 5 to 60 mins by LC-MS/MS analysis. It counts as ADME, microsome.
A short description of data set [16]: Protein binding in human plasma at 1 uM after 6 hrs by equilibrium dialysis method. It counts as ADME, cell-free. The note with it: read-out: PPB (converted). Background: Equilibrium dialysis compares concentrations on both sides of a semipermeable membrane.
In data set [17] the test system is Liver. Nature of the data set: Drug metabolism in rat liver microsomes assessed as oxidation of methyl group on pyrimidine at 1 uM after 5 to 60 mins by LC-MS/MS analysis. It counts as ADME, microsome.
Data set [18] can be described thus: Protein binding in mouse plasma at 1 uM after 6 hrs by equilibrium dialysis method. It counts as ADME, cell-free. The note with it: read-out: PPB (converted).
Data set [19] is described as follows: Protein binding in rat plasma at 1 uM after 6 hrs by equilibrium dialysis method. It counts as ADME, cell-free. The conditions noted are these: read-out: PPB (converted).
Data set [20] has as its system Rattus norvegicus. Kind of data set: Ex vivo receptor occupancy at P2X7 in po dosed Sprague-Dawley rat brain assessed as plasma concentration required to achieve EC50 after 60 mins by autoradiography. It counts as functional, organism-based.
The nature of data set [21]: Oral bioavailability in Sprague-Dawley rat at 5 mg/kg by LC-MS/MS analysis. It counts as ADME, organism-based. The conditions noted are these: in vivo.
Data set [22] is described as follows: Volume of distribution at steady state in beagle dog at 0.5 mg/kg, iv or 2.5 mg/kg, po by LC-MS/MS analysis. It counts as ADME, organism-based, Canis lupus familiaris. The note with it: in vivo, read-out: Vdss.
Data set [23] is described as follows: Solubility of compound in phosphate buffer at pH 7 after 3 days. It counts as physicochemical.
Data set [24] in a line: Volume of distribution at steady state in Sprague-Dawley rat at 1 mg/kg, iv or 5 mg/kg, po by LC-MS/MS analysis. It counts as ADME, organism-based. The note with it: in vivo, read-out: Vdss.
Data set [25] deals with P2X purinoceptor 7 (Homo sapiens, UniProt Q99572). Nature of the data set: Antagonist activity at human P2X7.
P2X purinoceptor 7, sequence (Q99572 whole entry): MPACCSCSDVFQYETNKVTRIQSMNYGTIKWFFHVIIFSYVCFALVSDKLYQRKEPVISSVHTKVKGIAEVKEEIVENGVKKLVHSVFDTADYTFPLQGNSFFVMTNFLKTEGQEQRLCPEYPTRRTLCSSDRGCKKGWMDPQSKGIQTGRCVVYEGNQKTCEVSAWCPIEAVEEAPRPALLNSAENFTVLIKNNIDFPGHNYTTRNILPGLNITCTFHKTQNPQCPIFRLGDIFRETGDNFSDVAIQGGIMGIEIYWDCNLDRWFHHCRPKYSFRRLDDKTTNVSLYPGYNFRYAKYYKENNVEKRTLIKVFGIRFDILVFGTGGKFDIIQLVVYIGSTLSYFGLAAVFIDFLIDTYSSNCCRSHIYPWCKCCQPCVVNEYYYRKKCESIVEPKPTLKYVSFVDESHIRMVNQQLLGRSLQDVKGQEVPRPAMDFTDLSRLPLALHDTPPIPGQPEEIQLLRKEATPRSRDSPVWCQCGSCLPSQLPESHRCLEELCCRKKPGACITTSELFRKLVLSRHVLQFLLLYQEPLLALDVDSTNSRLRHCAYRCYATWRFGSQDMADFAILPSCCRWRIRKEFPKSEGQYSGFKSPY

Converted amounts (≈) assume the structure as drawn.

Cytochrome P450 2C19, sequence (P33261 whole entry): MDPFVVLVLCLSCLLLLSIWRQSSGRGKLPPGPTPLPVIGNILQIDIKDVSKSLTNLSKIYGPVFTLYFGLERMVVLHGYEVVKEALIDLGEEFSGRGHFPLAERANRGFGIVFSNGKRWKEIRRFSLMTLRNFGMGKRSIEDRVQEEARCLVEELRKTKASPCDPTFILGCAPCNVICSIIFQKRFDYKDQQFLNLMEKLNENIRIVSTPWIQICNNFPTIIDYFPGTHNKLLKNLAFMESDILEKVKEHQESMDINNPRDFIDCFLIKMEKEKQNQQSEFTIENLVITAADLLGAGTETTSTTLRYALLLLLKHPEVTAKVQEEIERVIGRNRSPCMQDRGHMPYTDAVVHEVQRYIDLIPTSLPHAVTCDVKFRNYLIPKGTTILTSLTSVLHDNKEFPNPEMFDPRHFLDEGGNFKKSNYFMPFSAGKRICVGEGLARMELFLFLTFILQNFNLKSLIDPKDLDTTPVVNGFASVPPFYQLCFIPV

For the molecule `Cc1ccnc(-n2nnc3c2CCN(C(=O)c2cccc(C(F)(F)F)c2Cl)[C@@H]3C)n1`, the clearance was found to be 1.26 L/h/kg in [1] and 3.84 L/h/kg in data set [13]. The Activity entry in data set [2] and in [11] was “Toxic” throughout. In addition, the half-life in data set [3] was 42 min; in data set [10] it was 48 min. In addition, the solubility at 72 h in [4] came out at 328 µM (≈ 143 µg/mL); in data set [23], 283 µM (≈ 124 µg/mL). Besides, the fraction unbound at 5 h, 5 µM in data set [5] is 0.041. Besides, the bioavailability came out at 86% in data set [6] and 3% in data set [21]. Also, the Drug metabolism entry in data set [7], in [8], in data set [12], in [14], in data set [15] and in data set [17] was “Metabolite_Detected” throughout. The 50% effect level in data set [9] (ED50) was put at a dose of 8.3 mg/kg. Further, the figures for the fraction unbound at 6 h, 1 µM in data set [16], in data set [18] and in data set [19] were 0.085, 0.095 and 0.095, respectively. The Cp in data set [20] is 51 ng/mL. Besides, the Vd in [22] was 1.8 L/kg; in data set [24], 1.6 L/kg.

Regarding `O=C(NCC12CC3CC(CC(C3)C1)C2)c1cc(CCCNCCCO)ccc1Cl` [AZD9056], in data set [25], the IC50 is 0.01 to 0.013 µM.

Source of the values: ChEMBL document CHEMBL4052642, “4-Methyl-6,7-dihydro-4H-triazolo[4,5-c]pyridine-Based P2X7 Receptor Antagonists: Optimization of Pharmacokinetic Properties Leading to the Identification of a Clinical Candidate” (J Med Chem, 2017).
